Assay results as given in US10450260B2, “NO- and H2S-releasing compounds” (RESEARCH FOUNDATION OF THE CITY UNIVERSITY OF NEW YORK, priority 2011, dated 2019).

Experiments:
TNF-α = test: Plasma TNF-α enzyme immunoassay; format: in vivo, rat; settings: for plasma TNF-α (FIG. 3): P<0.01 vs vehicle, P<0.01 vs ASA; for plasma TNFα concentration: rats, equimolar oral doses: ASA 180 (1 mmol/kg), NOSH-ASA 477, naproxen 80, NOSH-naproxen 188, sulindac 200, NOSH-sulindac 467 mg/kg, control 11±0.3
Description: Fresh samples of blood from the animals were taken by cardiac puncture into heparin-containing vials. The determination of plasma TNF-α was carried out by an enzyme immunoassay kit from R&D systems (Minneapolis, Minn.). Briefly, each sample (50 μL) was incubated with antibodies specific for rat TNF-α and washed three times with assay buffer. An enzyme-linked polyclonal antibody specific for rat TNF-α conjugated to horseradish peroxidase was then added to the wells. Following washing of unbound antibody-enzyme reagent, a substrate solution (containing tetramethylbenzidine, TMB, plus hydrogen peroxide) was added to the wells. The enzyme reaction yielded a blue product (oxidized TMB) that turned yellow when the stop solution (dilute hydrochloride acid) was added. The intensity of the color was determined by measuring the OD of the yellow color in a standard ELISA plate reader at 450 nm. Sensitivity of this TNF-α assay was determined by adding two standard deviations to the mean optical density value of 20× zero standard replicates and calculating the corresponding concentration. The kit contains all reagents and standards needed for the TNF-α sensitivity assay. The results are expressed as pg/mL.
This was done by an enzyme immunoassay kit from R&D systems (Minneapolis, Minn.) following the protocol described by the manufacturer. Briefly, fresh blood (50 μL) was incubated with antibodies specific for rat TNF-α and washed three times with assay buffer. An enzyme-linked polyclonal antibody specific for rat TNF-α conjugated to horseradish peroxidase was then added to the wells. Following washing of unbound antibody-enzyme reagent, a substrate solution (containing tetramethylbenzidine, TMB, plus hydrogen peroxide) was added to the wells. The enzyme reaction yielded a blue product (oxidized TMB) that turned yellow when the stop solution (dilute hydrochloride acid) was added. The intensity of this was measured at 450 nm. Sensitivity of this TNF-α assay was determined by adding two standard deviations to the mean optical density value of 20× zero standard replicates and calculating the corresponding concentration.

[1] = tested on: carrageenan-induced paw edema; test: Carrageenan-induced rat paw edema; format: in vivo; settings: for paw volume versus vehicle treated rats (FIG. 2A): P<0.05, four rats in each group; for anti-inflammatory effect on paw swelling compared with parent NSAID: equimolar oral doses (Example 12)
Description: Carrageenan (1%, 100 μL, suspended in sterile saline solution, type IV lamda; Sigma-Aldrich) was subcutaneously injected into the plantar surface of the right hind paw in rat following the protocol described by Winter et al., Proceedings of the Society for Experimental Biology and Medicine 1962, 111:544-547. Paw volume was measured using a water displacement plethysmometer (model 520; IITC/Life Sciences Instruments, Woodland Hills, Calif.) before carrageenan injection and thereafter at 1-h intervals for 6 h. The paw volume measured just before carrageenan injection was used as the control volume. Data are expressed as the change in paw volume (milliliters) at each time point.
Carrageenan, type IV lambda (1%, 100 μL suspended in sterile saline solution), from Sigma Chemicals (St. Louis, Mo.) was subcutaneously injected into the plantar surface of the right hind paw in rat following the protocol described by Winter et al., Proceedings of the Society for Experimental Biology and Medicine 1962, 111:544-547. Paw volume was measured using a water displacement plethysmometer (Model 520, IITC/Life Sciences Instruments, Woodland Hills, Calif.) before carrageenan injection and thereafter at 1 hour intervals for 5 hours. The paw volume measured just prior to carrageenan injection was used as the control volume. Data are expressed as the change in paw volume (mL) at each time point.

[2] = tested on: HCT-15 human colon adenocarcinoma; test: MTT cell growth inhibition, HCT15; format: cell-based; settings: for IC50: Homo sapiens, HCT-15; for Ratio NSAID/NOSH-NSAID, HCT15: fold-enhancement in potency over the parent compound
Description: (§1) All cells lines were grown as monolayers except for the Jurkats which were grown in suspension. […] All media were supplemented with 10% fetal calf serum (Invitrogen, Carlsbad, Calif.) penicillin (50 U/ml), and streptomycin (50 μg/ml) (Invitrogen, Carlsbad, Calif.). Cells were seeded on culture dishes at a density of 25×10^3 cells/cm^2 and incubated at 37° C. in 5% CO2 and 90% relative humidity. Single cell suspensions were obtained by trypsinization (0.05% trypsin/EDTA), and cells were counted using a hemocytometer. Viability was determined by the trypan blue dye exclusion method.
(§2) Cell growth inhibitory effect of NOSH compounds were measured using a colorimetric MTT assay kit (Roche, Indianapolis, Ind.). Cancer cells were plated in 96-well plates at a density of 50,000 cells/well. The cells were incubated for 24 h with different concentrations of NOSH compounds. After the indicated time, 10 μl of MTT dye (3-[4,5-dimethylthiazol-2-yl]-2,5-diphenyl tetrazolium bromide, 5 mg/ml in phosphate buffered saline), was added to each well, and the plates were incubated for 2 hours at 37° C. Then, the media was aspirated, and add 100 μl of the solubilization solution (10% SDS in 0.01 M HCl) was added to each well to solubilize the formant crystals. The absorbance of the plates was measured on an ELISA reader at a wavelength of 570 nm. Each sample was performed in triplicate, and the entire experiment was repeated three times.
(§3) All media were supplemented with 10% fetal calf serum (Invitrogen, Carlsbad, Calif.) penicillin (50 U/ml), and streptomycin (50 μg/ml) (Invitrogen, Carlsbad, Calif.). Cells were seeded on culture dishes at a density of 25×10^3 cells/cm^2 and incubated at 37° C. in 5% CO2 and 90% relative humidity. Single cell suspensions were obtained by trypsinization (0.05% trypsin/EDTA), and cells were counted using a hemacytometer. The final DMSO concentration was adjusted in all media to 1%. Viability was determined by the trypan blue dye exclusion method.
(§4) Cell growth inhibitory effect of all NOSH-NSAIDs was measured using a colorimetric MTT assay kit (Roche, Indianapolis, Ind.). Cancer cells were plated in 96-well plates at a density of 30,000-50,000 cells/well depending on cell type. The cells were incubated for 24 hours with different concentrations of NOSH-NSAIDs. After the indicated time, 10 μL of MTT dye (3-[4,5-dimethylthiazol-2-yl]-2,5-diphenyl tetrazolium bromide, 5 mg/mL in phosphate buffered saline), was added to each well, and the plates were incubated for 2 hours at 37° C. Then, the media was aspirated, and 100 μL of the solubilization solution (10% SDS in 0.01 M HCl) was added to each well to solubilize the formant crystals. The absorbance of the plates was measured on a spectrophotometric plate reader at a wavelength of 570 nm. Each experiment was performed in triplicate, and the entire experiment was repeated three times.

gastric mucosa = test: Gastric damage, ulcer index; format: in vivo, rat; settings: rats, oral gavage, equimolar doses: ASA 180, NOSH-ASA 477, naproxen 80, NOSH-naproxen 188, sulindac 200, NOSH-sulindac 467 mg/kg; 6 h post-administration; vehicle UI=0
Description: The institutional animal care and research committees approved all experimental procedures described herein. Male Wistar rats (4 per group) weighing 180-200 g were obtained from Charles River Laboratories International (Wilmington, Mass.). The rats were fed standard laboratory chow and water. Rats were fasted for 48 h with free access to drinking water. […] Stomachs were then rapidly removed, cut along the greatest curvature, and rinsed with ice-cold distilled water. […] Tissues from stomachs were excised and processed for measurement of Prostaglandin E2 (PGE2), malondialdehyde (MDA) and Superoxide dismutase (SOD) activity.

[3] = tested on: SK-BR-3 human breast cancer; test: MTT cell growth inhibition, SKBR3; format: cell-based; settings: for IC50: Homo sapiens, SK-BR-3; for Ratio NSAID/NOSH-NSAID, SKBR3: fold-enhancement in potency over the parent compound
Description: as §1, §2, §3, §4

SMILES	IC50 ([2]; 24 hours) [nM]	IC50 ([3]; 24 hours) [nM]	plasma TNFα concentration (TNF-α) [pg/mL]	gastric damage score, ulcer index (UI) (gastric mucosa)	IC50 ([2]; 24 hours (Table 7)) [nM]	IC50 ([3]; 24 hours (Table 7)) [nM]	further results
CC(=O)Oc1ccccc1C(=O)O [ASA, aspirin, reference compound]			190 ± 5				increase of plasma TNF-α concentration over control (TNF-α; ASA 0.56 mmol/kg): about 20 fold; plasma TNF-α concentration (TNF-α; ASA 0.56 mmol/kg, control 10±1): 200 ± 10 pg/mL; increase of plasma TNFα concentration over control (TNF-α; ASA 1 mmol/kg): about 20 fold; plasma TNF-α (FIG. 3) (TNF-α): significant rise; change in paw volume ΔV ([1]; ASA 0.56 mmol/kg, after 6 hours): ~0.35 mL; change in paw volume ΔV ([1]; ASA 0.56 mmol/kg, at 1 hour): 0.4 mL; change in paw volume ΔV ([1]; ASA 0.56 mmol/kg, over the next 2 hours (after 1 h)): ~0.35 mL; paw volume versus vehicle treated rats (FIG. 2A) [1]: significant reduction in paw volume at all time points
O=C(CCCO[N+](=O)[O-])Oc1ccccc1C(=O)Oc1ccc(-c2cc(=S)ss2)cc1 [NOSH-1, 4-(3-thioxo-3H-1,2-dithiol-5-yl)phenyl 2-((4-(nitrooxy)butanoyl)oxy)benzoate]	50 ± 5	75 ± 5	75 ± 1	2			plasma TNF-α concentration (TNF-α; NOSH-1 0.21 mmol/kg): 55 ± 2 pg/mL; plasma TNF-α concentration (TNF-α; NOSH-1 0.52 mmol/kg): 40 ± 3 pg/mL; plasma TNF-α (FIG. 3) (TNF-α): significantly less; paw volume versus vehicle treated rats (FIG. 2A) [1]: significant reduction in paw volume at all time points; change in paw volume ΔV ([1]; high dose NOSH-1 0.52 mmol/kg, after 1-2 hours): 0.45 mL; change in paw volume ΔV ([1]; high dose NOSH-1 0.52 mmol/kg, over the next 4 hours (to 6 h)): 0.35 mL; change in paw volume ΔV ([1]; low dose NOSH-1 0.21 mmol/kg, after 1 hour): 0.5 mL; change in paw volume ΔV ([1]; low dose NOSH-1 0.21 mmol/kg, by 3 hours): 0.6 mL; change in paw volume ΔV ([1]; low dose NOSH-1 0.21 mmol/kg, over the next 3 hours (to 6 h)): ~0.4 mL
O=C(CCCC[C@@H]1CCSS1)Oc1ccccc1C(=O)OCCCCO[N+](=O)[O-] [NOSH-4, (R)-4-(nitrooxy)butyl 2-((5-(1,2-dithiolan-3-yl)pentanoyl)oxy)benzoate]	520 ± 21	550 ± 28					
CC(C(=O)Oc1ccc(-c2cc(=S)ss2)cc1)c1ccc2cc(OC(=O)CCCO[N+](=O)[O-])ccc2c1 (stereo not shown) [NOSH-7, 6-(1-oxo-1-(4-(3-thioxo-3H-1,2-dithiol-5-yl)phenoxy)propan-2-yl)naphthalen-2-yl 4-(nitrooxy)butanoate]			48 ± 2	2	100	100	Ratio NSAID/NOSH-NSAID, HCT15 [2]: 28,500; Ratio NSAID/NOSH-NSAID, SKBR3 [3]: 28,900; anti-inflammatory effect on paw swelling compared with parent NSAID [1]: even lower inflammatory response compared to naproxen
CC1=C(CC(=O)Oc2ccc(OC(=O)CCCO[N+](=O)[O-])c(C(=O)Oc3ccc(-c4cc(=S)ss4)cc3)c2)c2cc(F)ccc2/C1=C/c1ccc([S+](C)[O-])cc1 (stereo not shown) [NOSH-8, (E)-4-(3-thioxo-3H-1,2-dithiol-5-yl)phenyl 5-(2-(5-fluoro-2-methyl-1-(4-(methylsulfinyl)benzylidene)-1H-inden-3-yl)acetoxy)-2-((4-(nitrooxy)butanoyl)oxy)benzoate]			50 ± 3	10	110	120	Ratio NSAID/NOSH-NSAID, HCT15 [2]: 7,727; Ratio NSAID/NOSH-NSAID, SKBR3 [3]: 7,041; anti-inflammatory effect on paw swelling compared with parent NSAID [1]: the same anti-inflammatory response as sulindac
CC1=C(CC(=O)O)c2cc(F)ccc2/C1=C\c1ccc([S+](C)[O-])cc1 (stereo not shown) [sulindac, reference compound]			230 ± 5	130	850000	845000	

Now from value to molecule, other results behind:

IC50 ([2]; 24 hours) [nM]	IC50 ([3]; 24 hours) [nM]	SMILES	plasma TNFα concentration (TNF-α) [pg/mL]	gastric damage score, ulcer index (UI) (gastric mucosa)	IC50 ([2]; 24 hours (Table 7)) [nM]	IC50 ([3]; 24 hours (Table 7)) [nM]	further results
90 ± 6	88 ± 7	O=C(CCC(=O)Oc1ccccc1C(=O)Oc1ccc(-c2cc(=S)ss2)cc1)OCCCCO[N+](=O)[O-] [NOSH-2, 4-(nitrooxy)butyl (2-((4-(3-thioxo-3H-1,2-dithiol-5-yl)phenoxy)carbonyl)phenyl) succinate]					
5900 ± 305	6500 ± 268	NC(=S)c1ccc(OC(=O)c2ccccc2OC(=O)CCCO[N+](=O)[O-])cc1 [NOSH-3, 4-carbamothioylphenyl 2-((4-(nitrooxy)butanoyl)-oxy)benzoate]					
